Measured values as given in US20200164025A1, “AN[…] E[…] AND ACE2 BY BRG1-FOXM1 COMPLEX UNDERLIES PA[…] HYPERTROPHY” (INDIANA UNIVERSITY RESEARCH AND TECHNOLOGY CORPORATION, priority 2014, published 2020).

Columns and labels:
[1] = test system: TAC-stressed hearts; assay: TAC pressure-overload cardiac hypertrophy in mice treated with thiostrepton; type: in vivo
Method: (§1) FoxM1 is a transcription factor that regulates the expression of genes associated with pathological hypertrophy. […] However, FoxM1 mRNA increased by 8.4-fold in TAC-stressed hearts (FIG. 6A), and the protein was present in the nuclei of both myocytes and endothelial cells of stressed hearts (FIGS. 6B and 6C). Because of the stress-induced endothelial expression of FoxM1, it was evaluated if FoxM1 cooperated with Brg1 to regulate Ace and Ace2 expression. The necessity of FoxM1 activation for cardiac hypertrophy by using FoxM1 inhibitor thiostrepton to inhibit FoxM1 in TAC-stressed hearts was tested. Within 4 weeks after TAC, the control mice injected with DMSO developed severe cardiac hypertrophy with increased ventricle-body weight ratio, interstitial fibrosis, and cardiac dysfunction with reduced left ventricular fractional shortening (FS) (FIGS. 6D, 6E, and 6G). […] Collectively, these findings indicate that FoxM1 activation by stress is necessary for cardiac myopathy and for stress-induced changes of Ace and Ace2.

[2] = test system: Ace and Ace2; assay: Western blot analysis of Ace and Ace2 in heart ventricles of thiostrepton treated mice after TAC; type: in vivo; conditions: 2 weeks after TAC
Method: as §1

[3] = test system: Ace and Ace2 promoter; assay: Luciferase reporter assays of Ace and Ace2 proximal promoters in mouse cardiac endothelial cells; type: cell-based; conditions: MCEC cells
Method: The transcriptional activity of Brg1 on the Ace and Ace2 promoters was also tested. 3.1 kb of Ace upstream promoter (−2983 bp to +174 bp) and 7.8 Kb of Ace2 upstream promoter (−7063 bp to +786 bp) were cloned into the episomal reporter pREP4 that undergoes chromatinization in mammalian cells. The reporter constructs and Brg1-expressing plasmid were transfected into mouse cardiac endothelial cells. In these cells, Brg1 caused a 1.7-fold increase in Ace promoter activity and 59% reduction in Ace2 promoter activity (FIG. 5P). Combined with the ChIP results, these reporter studies indicate that Brg1 activates Ace promoter and represses Ace2 promoter, providing a mechanism for the antithetical changes of Ace and Ace2 in stressed hearts.
Inhibition of FoxM1 by thiostrepton eliminated the ability of Brg to activate Ace and repress Ace2 promoter (FIGS. 10F and 10G).

C=C(NC(=O)C(=C)NC(=O)c1csc(C2=N[C@@H]3c4csc(n4)[C@H]4NC(=O)c5csc(n5)[C@H]([C@](C)(O)[C@@H](C)O)NC(=O)[C@H]5CSC(=N5)/C(=C/C)NC(=O)[C@H]([C@@H](C)O)NC(=O)c5csc(n5)[C@]3(CC2)NC(=O)[C@H](C)NC(=O)C(=C)NC(=O)[C@H](C)NC(=O)[C@H]([C@@H](C)CC)N[C@@H]2C=Cc3c([C@H](C)O)cc(nc3[C@H]2O)C(=O)O[C@@H]4C)n1)C(N)=O [thiostrepton]
improvement of left ventricular fractional shortening (FS) ([1]; 4 weeks after TAC, echocardiography, vs DMSO control): 28% | reduction of hypertrophy (ventricle-body weight ratio) ([1]; 4 weeks after TAC, vs DMSO control): ~50% | cardiac dysfunction ([1]; within 4 weeks after TAC): lesser degree of cardiac dysfunction | interstitial fibrosis ([1]; within 4 weeks after TAC, trichrome staining): mild interstitial fibrosis | cardiac hypertrophy ([1]; within 4 weeks after TAC, vs DMSO control): mild cardiac hypertrophy | TAC-induced changes of Ace and Ace2 ([2]; Western blot of heart ventricles): abolished | reduction of Ace/Ace2 ratio in stressed hearts ([2]; Western blot quantitation): 6.53 fold | ability of Brg to activate Ace and repress Ace2 promoter [3]: eliminated
